What was measured:
[1] = Fluorescence response to NO in buffered aqueous solution; conditions: for fluorescence on reaction with NO-releasing agent SNAP: pH 7.0 (50 mM PIPES, 100 mM KCl), 30 min time interval
Protocol: FIG. 5 depicts the fluorescence response of Cu(FL5) to NO. Fluorescence emission spectra (λex=503 nm) of a deoxygenated 1 μM solution of Cu(FL5) in buffered solution (50 mM PIPES, pH 7.0, 100 mM KCl) before (dashed line), immediately, 1, 2 and 5 min after (solid lines) admission of 1300 equiv of NO (g) at 37° C.
The fluorescence of a 1 μM FL5 solution was diminished by 18±3% upon introduction of an equimolar quantity of CuCl2 at 37° C. Addition of excess NO to a buffered aqueous Cu(FL5) solution led to an immediate 11.2±1.5-fold increase in fluorescence (FIG. 5). […] The lower detection limit for NO is 5 nM.
A commercially available NO probe, DAF-2 (o-diaminofluorescein), was used for comparison with Cu(FL5). The fluorescence of DAF-2 is unchanged in the presence of NO and the absence of O2 over a period of 1 h.
As depicted in FIG. 4, NO detection by Cu(FL5) occurs, formally, by nitric oxide-induced reduction of Cu(II) to Cu(I), forming NO^+, which nitrosates the ligand with concomitant dissociation from copper and fluorescence turn-on. The mechanism of turn-on emission of Cu(FL5) by NO was investigated by EPR, UV-vis, NMR and fluorescence spectroscopy and by liquid chromatography-mass spectrometry (LC-MS, low resolution MS).

[2] = system: SK-N-SH human neuroblastoma cells; experiment: Detection of NO produced by cNOS in SK-N-SH cells (fluorescence imaging); assay type: cell-based
Protocol: FIG. 7 illustrates Cu(FL5) detection of NO produced by cNOS. (a) NO detection in SK-N-SH cells by Cu(FL5). Left to right: 25 min incubation of Cu(FL5) (1 μM) and 5, 10, 15, 25 min after co-treatment of Cu(FL5) (1 μM) and 17β-estradiol (100 nM). Images were taken with a Nikon Eclipse TS100 microscope after removing the DMEM media and washing the cells with PBS. Top: fluorescence images; bottom: phase contrast images. (b) Fluorescence intensity (F(t)/FCu(FL5)) from a was plotted against incubation time. (c) NO production with or without of L-NNA. Right: NO detection in cells after 10 min co-incubation of Cu(FL5) (1 μM) and 17β-estradiol (100 nM). Left: NO detection in cells pre-treated with L-NNA for 1 h before addition of Cu(FL5) and 17β-estradiol.
We investigated the ability of Cu(FL5) to detect NO produced in SK-N-SH human neuroblastoma cells under physiological conditions, since constitutive NO synthase (“cNOS”) in this cell line can be activated by estrogen to produce NO. Estrogen administration leads to an increase in the cytosolic Ca(II) concentration that alters the structure of calmodulin, which in turn activates cNOS. The NO-dependent fluorescence response, monitored after simultaneous administration of 17β-estradiol (100 nM) and Cu(FL5) (1 μM) to the cells, was completed within 5 min with a 4.0±0.6-fold increase in fluorescence (FIGS. 5a and b). […] As another control, HeLa cells were co-treated with 17β-estradiol (100 nM) and Cu(FL5) (1 μM).
Raw 264.7, SK-N-SH, and HeLa cells were purchased from the American Type Culture Collection (ATCC). All three cell lines were maintained in Dulbecco's modified Eagles' media (DMEM) (GibcoBRL) containing 10% (v/v) heat-inactivated fetal bovine serum (FBS) (HyClone), 1 mM sodium pyruvate (Sigma), 100 units/ml penicillin, 100 μg/ml streptomycin (Invitrogen), and 0.1 mM nonessential amino acid solution for minimal essential medium (Sigma). All cells were grown at 37° C. in a humidified atmosphere of 10% CO2. A nitrite assay was performed with Griess reagents (Promega) on Raw 264.7 cells grown in DMEM free of phenol red. Calcium sensor fluo-4 AM was purchased from Invitrogen. MTT [3-(4,5-dimethylthiazol-2-yl)-2,5-diphenyltetrazolium bromide] (Sigma-Aldrich) assay was described in Supplementary information. The expression of iNOS in Raw 264.7 cells was analyzed by Western blot on the extracts of cells stimulated by LPS and INF-γ. The protein was silenced by short hairpin RNA-induced RNAi and the resulting cell lines were used in fluorescence imaging by Cu(FL5).

[3] = system: Raw 264.7 murine macrophage cells; experiment: Detection of NO produced by iNOS in Raw 264.7 cells (fluorescence imaging); assay type: cell-based
Protocol: FIG. 8 illustrates Cu(FL5) detection of NO produced by iNOS. (a) NO detection in Raw 264.7 macrophage cells by Cu(FL5). Left to right: Cu(FL5) (1 μM) incubation with cells for 12 h, and 2, 4, 6, 8 h after addition of Cu(FL5) into cells that were pre-stimulated for 4 h with LPS (500 ng mL^−1) and IFN-γ (250 U mL^−1). The times depicted in the figure are the total incubation times with Cu(FL5). Images were taken immediately after removing the media and washing the cells three times with PBS. The instrument used was a Zeiss Axiovert 200M inverted epifluorescence microscope with differential interference contrast (DIC). Top: fluorescence images; bottom: DIC images. (b) Silencing of iNOS by RNAi in Raw 264.7 cells. A plasmid expressing shRNA was constructed to target the mRNA of iNOS. It was transfected into cells. The plasmid vector without insert for RNAi was transfected to establish a control cell line. The expression of iNOS in these two cell lines after stimulated by LPS and IFN-γ for 12 h was investigated by Western blot on the whole cell extracts with antibodies against the protein and actin, which served as loading control (lane 1: cells with control plasmid vector, lane 2: cells with plasmid expressing shRNA for iNOS). (c) NO detection in Raw 264.7 cells with iNOS silenced by RNAi. The two lines in (b) were treated with LPS and IFN-γ for 4 h before 8 h of incubation with Cu(FL5).
In macrophages, nitric oxide is produced by inducible NO synthases (“iNOS”). […] This method colorimetrically determines the concentration of NO2^− resulting from NO oxidation in the extracellular space. Fluorescence detection of NO production by stimulated macrophage cells was also achieved by incubation of the extracellular fluid with DAN and DAFs. These dyes improved the sensitivity of Griess assay, but were unable to reveal NO production inside cells with spatial and temporal fidelity. The present Cu(FL5) construct, however, readily detects NO produced in activated Raw 264.7 cells by fluorescence turn-on. Macrophage cells were incubated with LPS (500 ng/mL) and IFN-γ (250 U/mL) for 4 h, after which 1 μM Cu(FL5) was applied. The fluorescence response was monitored at 2 h intervals by microscopy (FIG. 6a).
To investigate further the origin of fluorescence detected by Cu(FL5), iNOS was silenced in Raw 264.7 cells by short hairpin RNA (shRNA)-induced RNA interference (RNAi) (FIG. 6b).
Raw 264.7, SK-N-SH, and HeLa cells were purchased from the American Type Culture Collection (ATCC). […] The expression of iNOS in Raw 264.7 cells was analyzed by Western blot on the extracts of cells stimulated by LPS and INF-γ. The protein was silenced by short hairpin RNA-induced RNAi and the resulting cell lines were used in fluorescence imaging by Cu(FL5).

Cc1ccc2cccc(NCc3c([O][Cu][Cl])ccc4c(-c5ccccc5C(=O)O)c5cc(Cl)c(=O)cc-5oc34)c2n1 [Cu(FL5)]
fluorescence response to NO under both anaerobic and aerobic conditions [1]: immediate fluorescence response | lower detection limit for NO [1]: 5 nM | increase in fluorescence upon addition of excess NO ([1]; buffered aqueous solution, immediate): 11.2±1.5 fold | increase in fluorescence upon addition of NO in the presence of excess EDTA ([1]; excess EDTA chelating Cu(II)): 1.3±0.2 fold | fluorescence on reaction with NO-releasing agent SNAP [1]: enhanced | fluorescence on reaction with NO-releasing agent SNAP ([1]; listed as Cu(II)(FL5)): turn-on fluorescence | increase in fluorescence in SK-N-SH cells ([2]; 17β-estradiol (100 nM) and Cu(FL5) (1 μM) administered simultaneously): 4.0±0.6 fold | time to complete fluorescence response in SK-N-SH cells ([2]; 17β-estradiol (100 nM), probe 1 μM): ≤ 5 min | fluorescence response in presence of cNOS inhibitor L-NNA ([2]; 17β-estradiol-stimulated SK-N-SH cells): notably weaker fluorescence response | fluorescence enhancement in living cells, both cNOS and iNOS ([2]; both cell lines (Raw 264.7 and SK-N-SH)): > 4 fold | brightness of NO visualization compared with DAF-2 DA ([2]; estradiol-stimulated neuroblastoma cells): brighter fluorescence than DAF-2 DA | average fluorescence in activated Raw 264.7 cells ([3]; LPS (500 ng/mL) and IFN-γ (250 U/mL) 4 h, then 1 μM Cu(FL5), monitored at 2 h intervals): slowly increased over 12 h | fluorescence response in Raw 264.7 cells with iNOS silenced by shRNA vs plasmid vector only ([3]; stimulated by LPS and IFN-γ): much weaker fluorescence response | fluorescence response in stimulated Raw 264.7 cells in presence of iNOS inhibitor L-NMA ([3]; vs absence of L-NMA): notably weaker fluorescence response

Cc1ccc2cccc(NCc3c(O)ccc4c(-c5ccccc5C(=O)O)c5cc(Cl)c(=O)cc-5oc34)c2n1 [FL5, 2-{2-chloro-6-hydroxy-5-[(2-methyl-quinolin-8-ylamino)-methyl]-3-oxo-3H-xanthen-9-yl}-benzoic acid]
increase in fluorescence when treated with excess NO over 30 min ([1]; control: no Cu(II), over 30 min): 1.5±0.2 fold | fluorescence in stimulated SK-N-SH cells in the absence of Cu(II) ion ([2]; over a period of 25 min): no fluorescence increase | turn-on fluorescence emission in stimulated Raw 264.7 cells without Cu(II) ion ([3]; LPS and IFN-γ, 12 h incubation period): not observed

— patent publication US7494821B2, “Fluorescein based sensors for tracking nitric oxide in live cells” (Massachusetts Institute of Technology, priority 2005, dated 2009)
